# From US10772884B2, “Sulphate salts of N-(3-(4-(3-(diisobutylamino)propyl)piperazin-1-yl)propyl)-1H-benzo[d]imidazol-2-amine, preparation thereof and use of the same” (ALZPROTECT, priority 2012, dated 2020)
# What was measured:
# [1] = long term stability (oxidation) in solid state; format: physicochemical; settings: oxidation at the piperazine ring
# [2] = salt formation results (physical form); format: physicochemical; settings: Acid eq. added 0
# Experimental: The hydrochloride, hydrobromide, acetate, tartrate, fumarate, malate, oxalate and sulphate salts of N-(3-(4-(3-(diisobutylamino)propyl)piperazin-1-yl)propyl)-1H-benzo[d]imidazol-2-amine were prepared according to procedures similar to those described in the previous examples or standard salt formation methods well known in the art.
structure (smiles),measurement,setting,value
"CC(C)CN(CCCN1CCN(CCCNc2nc3ccccc3[nH]2)CC1)CC(C)C [Free base, N-(3-(4-(3-(diisobutylamino)propyl)piperazin-1-yl)propyl)-1H-benzo[d]imidazol-2-amine]",long term stability,[1],long term stability issues
same,Physical form,[2],Amorphous powder
